In brackets after ≈: the same amount, converted by molar mass.
Experiment: Solubility of the active agent in water
Format: physicochemical

COc1ccc2[nH]cc(CCNC(=O)CC3C(=O)N(CCc4ccc(Cl)cc4Cl)CC(=O)N3CCc3cccs3)c2c1 (stereo not shown) [LPT99, 2-(4-(2,4-Dichlorophenethyl)-3,6-dioxo-1-(2-(thiophen-2-yl)ethyl)piperazin-2-yl)-N-(2-(5-methoxy-1H-indol-3-yl)ethyl)acetamide]
solubility: ~2.4 µM (≈ 1.51 µg/mL)
